# From the supplement of paper PMC10307832
# Experiments:
# Experiment in all cases: relative viability (nuclei count vs DMSO), 5 days (fraction); higher = more cells survive
# Tipifarnib + Decitabine = compound: Cn1cncc1[C@@](N)(c1ccc(Cl)cc1)c1ccc2c(c1)c(-c1cccc(Cl)c1)cc(=O)n2C [Tipifarnib] + Nc1ncn([C@H]2C[C@H](O)[C@@H](CO)O2)c(=O)n1 [Decitabine] (partner 2 µM)
# Procedure, shortened: (§1)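 Relative viability is defined as nuclei in treated wells over nuclei in vehicle wells. Duplicate plates were run and medians reported. Lung cancer cell lines in 1536-well plates were dosed by pin tool one day after seeding, with one drug or with a fixed anchor-drug dose plus five library-drug doses (not always all listed) in √10 steps, and nuclei were counted after 5 days.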
# Tipifarnib + Tozasertib = compound: Cn1cncc1[C@@](N)(c1ccc(Cl)cc1)c1ccc2c(c1)c(-c1cccc(Cl)c1)cc(=O)n2C [Tipifarnib] + Cc1cc(Nc2cc(N3CCN(C)CC3)nc(Sc3ccc(NC(=O)C4CC4)cc3)n2)n[nH]1 [Tozasertib] (partner 0.1 µM)
# Procedure, shortened: as §1
# Tipifarnib + Lapatinib = compound: Cn1cncc1[C@@](N)(c1ccc(Cl)cc1)c1ccc2c(c1)c(-c1cccc(Cl)c1)cc(=O)n2C [Tipifarnib] + CS(=O)(=O)CCNCc1ccc(-c2ccc3ncnc(Nc4ccc(OCc5cccc(F)c5)c(Cl)c4)c3c2)o1 [Lapatinib] (partner 2 µM)
# Procedure, shortened: as §1
# Tipifarnib + Crizotinib = compound: Cn1cncc1[C@@](N)(c1ccc(Cl)cc1)c1ccc2c(c1)c(-c1cccc(Cl)c1)cc(=O)n2C [Tipifarnib] + C[C@@H](Oc1cc(-c2cnn(C3CCNCC3)c2)cnc1N)c1c(Cl)ccc(F)c1Cl [Crizotinib] (partner 1 µM)
# Procedure, shortened: as §1
Cell Line,relative viability (Tipifarnib + Decitabine; first compound 0.01 µM),relative viability (Tipifarnib + Decitabine; first compound 0.03162 µM),relative viability (Tipifarnib + Decitabine; first compound 0.1 µM),relative viability (Tipifarnib + Decitabine; first compound 0.3162 µM),relative viability (Tipifarnib + Decitabine; first compound 1 µM),relative viability (Tipifarnib + Tozasertib; first compound 0.01 µM),relative viability (Tipifarnib + Tozasertib; first compound 0.03162 µM),relative viability (Tipifarnib + Tozasertib; first compound 0.1 µM),relative viability (Tipifarnib + Tozasertib; first compound 0.3162 µM),relative viability (Tipifarnib + Tozasertib; first compound 1 µM),relative viability (Tipifarnib + Lapatinib; first compound 0.01 µM),relative viability (Tipifarnib + Lapatinib; first compound 0.03162 µM),relative viability (Tipifarnib + Lapatinib; first compound 0.1 µM),relative viability (Tipifarnib + Lapatinib; first compound 0.3162 µM),relative viability (Tipifarnib + Lapatinib; first compound 1 µM),relative viability (Tipifarnib + Crizotinib; first compound 0.01 µM),relative viability (Tipifarnib + Crizotinib; first compound 0.03162 µM),relative viability (Tipifarnib + Crizotinib; first compound 0.1 µM),relative viability (Tipifarnib + Crizotinib; first compound 0.3162 µM),relative viability (Tipifarnib + Crizotinib; first compound 1 µM)
NCI-H2087,0.348,0.262,0.259,0.205,0.206,0.245,0.164,0.164,0.132,0.132,0.934,0.493,0.475,0.404,0.344,0.529,0.534,0.268,0.438,0.377
NCI-H2126,0.576,0.582,0.578,0.519,0.53,0.858,0.697,0.673,0.603,0.501,0.782,0.724,0.769,0.761,0.469,0.977,1.01,1.02,0.924,0.904
NCI-H2170,0.533,0.441,0.465,0.43,0.412,0.839,0.718,0.456,0.501,0.47,0.245,0.271,0.272,0.265,0.248,1.33,1.04,1.1,0.857,0.644
NCI-H2347,0.593,0.553,0.581,0.527,0.521,0.516,0.402,0.431,0.382,0.461,0.827,0.727,0.642,0.582,0.642,0.53,0.546,0.57,0.476,0.486
NCI-H2405,0.783,0.688,0.721,0.683,0.73,0.708,0.666,0.626,0.544,0.532,1.06,0.942,0.949,0.878,0.625,0.896,0.827,0.837,0.804,0.712
NCI-H3122,0.414,0.407,0.415,0.397,0.308,0.372,0.27,0.277,0.196,0.183,1.01,0.917,0.961,0.73,0.811,0.281,0.217,0.249,0.256,0.254
PC-3 [JPC-3],0.866,0.872,0.828,0.644,0.648,0.827,0.827,0.722,0.701,0.535,0.461,0.489,0.431,0.38,0.311,1.04,0.928,0.88,0.828,0.709
PC-14,0.223,0.183,0.221,0.189,0.145,0.397,0.496,0.172,0.165,0.155,0.346,0.327,0.242,0.226,0.15,0.928,0.834,0.748,0.469,0.43
RERF-LC-KJ,0.848,0.691,0.733,0.451,0.478,0.623,0.435,0.454,0.325,0.334,0.94,0.922,0.829,0.732,0.626,0.794,0.847,0.754,0.633,0.713
SK-LU-1,0.728,0.627,0.706,0.594,0.59,0.305,0.302,0.311,0.248,0.265,0.725,0.75,0.857,0.388,0.367,0.932,0.665,0.667,0.639,0.657
SK-MES-1,0.465,0.336,0.35,0.421,0.33,0.834,0.76,0.63,0.566,0.572,0.466,0.455,0.481,0.411,0.386,0.974,0.864,0.95,0.69,0.656
SW 1573,0.6,0.411,0.322,0.33,0.268,0.177,0.179,0.145,0.142,0.176,1.08,1.13,0.669,0.648,0.243,0.767,0.701,0.462,0.317,0.316
UMC-11,0.569,0.53,0.524,0.322,0.405,0.19,0.193,0.194,0.181,0.177,0.84,0.605,0.595,0.475,0.281,0.24,0.278,0.224,0.181,0.184
